Data from patent publication US20240115744A1, “FIBRIN-BINDING COMPOUNDS FOR IMAGING AND TREATMENT” (Collagen Medical, LLC, priority 2019, published 2024).
“Also recorded” adds a separate entry of the source. *1 amine or outer side, *2 acyl side, *3 side chain or, on linkers, in order; H or OH if unused. Where a SMILES comes first, the peptide text is derived from it. Bridges are numbered along the chain shown (N, C = ends). [ ]: non-standard residue; d: D form. The star is where a group is joined. NODAGA = O=C(O)CN1CCN(CC(=O)O)CCN(C(CCC(=O)*)C(=O)O)CC1; Tyr(3-Cl) = N[C@@H](Cc1ccc(O)c(Cl)c1)C(=O)O; X1 = O=C([C@@H]1CC(O)CN1[*:1])[*:2]

Biological target: T1, fibrin in human carotid endarterectomy specimens (Homo sapiens, UniProt P02671+P02675+P02679)
T1 construct: discarded surgical specimens from asymptomatic patients who underwent elective carotid endarterectomy; from tissue; host or cells: human carotid endarterectomy specimens (cryosections or tissue pieces)
T1 sequence (P02671 36-644 isoform P02671-2 limits assumed): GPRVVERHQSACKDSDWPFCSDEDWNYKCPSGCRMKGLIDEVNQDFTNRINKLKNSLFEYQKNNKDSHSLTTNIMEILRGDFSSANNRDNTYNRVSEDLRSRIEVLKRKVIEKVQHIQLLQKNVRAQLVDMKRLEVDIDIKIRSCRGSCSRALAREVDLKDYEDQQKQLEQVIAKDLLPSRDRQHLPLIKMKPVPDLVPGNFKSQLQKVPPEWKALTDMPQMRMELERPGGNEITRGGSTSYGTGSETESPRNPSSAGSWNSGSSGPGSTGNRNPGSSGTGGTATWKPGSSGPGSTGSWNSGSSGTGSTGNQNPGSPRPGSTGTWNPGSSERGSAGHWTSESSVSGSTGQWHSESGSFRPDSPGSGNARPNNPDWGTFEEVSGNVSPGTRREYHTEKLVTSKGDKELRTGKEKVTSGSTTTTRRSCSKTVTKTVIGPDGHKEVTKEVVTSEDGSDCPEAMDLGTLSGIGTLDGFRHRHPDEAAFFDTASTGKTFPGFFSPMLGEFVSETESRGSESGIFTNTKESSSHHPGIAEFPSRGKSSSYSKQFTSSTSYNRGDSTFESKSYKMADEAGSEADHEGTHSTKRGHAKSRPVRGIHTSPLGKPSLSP
T1 sequence (P02675 45-491 limits assumed): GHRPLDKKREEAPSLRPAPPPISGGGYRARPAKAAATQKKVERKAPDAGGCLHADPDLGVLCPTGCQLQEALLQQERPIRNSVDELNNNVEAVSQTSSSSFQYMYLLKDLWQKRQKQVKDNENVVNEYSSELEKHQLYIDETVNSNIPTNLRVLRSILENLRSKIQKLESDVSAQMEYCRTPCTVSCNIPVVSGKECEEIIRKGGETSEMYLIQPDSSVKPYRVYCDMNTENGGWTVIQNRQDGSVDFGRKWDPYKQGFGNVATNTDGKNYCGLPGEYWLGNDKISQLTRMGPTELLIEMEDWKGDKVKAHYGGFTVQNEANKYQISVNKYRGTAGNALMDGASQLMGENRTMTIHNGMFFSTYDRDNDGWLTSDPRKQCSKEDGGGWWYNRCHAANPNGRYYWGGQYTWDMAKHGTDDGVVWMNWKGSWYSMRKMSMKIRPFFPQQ
T1 sequence (P02679 27-437 isoform P02679-2 limits assumed): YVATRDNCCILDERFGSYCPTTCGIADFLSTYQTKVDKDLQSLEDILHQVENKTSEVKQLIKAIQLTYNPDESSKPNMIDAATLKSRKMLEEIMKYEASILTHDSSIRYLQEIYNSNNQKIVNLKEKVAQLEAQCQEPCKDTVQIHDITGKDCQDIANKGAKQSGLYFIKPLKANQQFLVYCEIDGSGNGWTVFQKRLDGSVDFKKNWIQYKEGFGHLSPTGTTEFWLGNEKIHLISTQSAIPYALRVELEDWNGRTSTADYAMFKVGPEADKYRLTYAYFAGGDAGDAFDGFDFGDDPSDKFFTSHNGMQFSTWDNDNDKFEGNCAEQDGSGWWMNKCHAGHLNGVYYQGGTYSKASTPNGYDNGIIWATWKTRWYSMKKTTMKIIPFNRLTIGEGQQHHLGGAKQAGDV
Assay: Ex vivo autoradiography of human carotid endarterectomy specimens
Settings: compared to non-binding probe ^68Ga-22; 12 patients; P<0.05
Description: Twelve discarded surgical specimens from asymptomatic patients who underwent elective carotid endarterectomy at Massachusetts General Hospital were obtained and used in ex vivo studies described herein. Samples were processed for histology, autoradiography, and probe binding assay as described above (Examples 6 and 13).
Discarded surgical specimens were embedded in optimal cutting temperature compound, snap-frozen, and stored at −80° C. before further analysis. Alternating consecutive cryosections were processed for histology and autoradiography; triplicate tissue samples with 50 μm gap in between were used for these experiments. The remaining tissue samples were processed for functional probe assay.
For autoradiography, three 30 μm-thick sections were incubated with ^68Ga-20 or non-fibrin binding control probe ^68Ga-22 for 45 minutes on a lab shaker at room temperature. Autoradiography was performed after three washes of PBS. The exposure time was 2 minutes.

## CC[C@H](C)[C@H](NC(=O)[C@H](Cc1cnc[nH]1)NC(=O)[C@@H]1CSSC[C@H](NC(=O)[C@@H](CCC(=O)O)NC(=O)[C@H](Cc2ccc(O)cc2)NC(=O)CCC(C(=O)O)N2CCN(CC(=O)O)CCN(CC(=O)O)CC2)C(=O)N2CC(O)C[C@H]2C(=O)N[C@@H](Cc2ccc(O)c(Cl)c2)C(=O)NCC(=O)N[C@@H](CC(C)C)C(=O)N1)C(=O)N[C@H](CCC(N)=O)C(N)=O (stereo partly shown) [Compound ^68Ga-20, metal not drawn] ({NODAGA}-Y[dE]C[X1][Tyr(3-Cl)]GLCHI[dQ]-NH2; disulfide 3-8)
  uptake, autoradiography: variable but significantly increased; also recorded: significantly higher uptake
